Measured values: PubChem BioAssay AID652 (University of Pittsburgh Molecular Library Screening Center, 2007)

Target: Gag-Pol polyprotein (Human immunodeficiency virus type 1 group M subtype B (isolate HXB2)) (UniProt P04585)
Experiment: HIV-1 RT RNase H inhibitor potency, dose response, biochemical, probe assessment (AID 652)
Details: HIV-1 RT RNase H enzymatic assay

Row | Structure (SMILES) | IC50
1 | CCOc1cc(C2C(C#N)=C(N)SC(N)=C2C#N)ccc1OCCN1CCOCC1 | 31.5 µM
2 | CCN(CC)C1=CC(=O)OC12CCCCC2 | 42.8 µM
3 | CC(C)Sc1nc(-c2cccs2)nc2c1c(=O)n(C)c(=O)n2C | 5.42 µM
4 | O=S(=O)(/N=S1/CC=CCN1S(=O)(=O)c1ccccc1)c1ccccc1 (stereo not given) | 4.33 µM
5 | CCCCCCn1c(SCC(=O)OC)nc2c1c(=O)[nH]c(=O)n2C | 3.11 µM
6 | CCOc1ccc(N2Cc3ccccc3C2)cc1 | 7.36 µM
7 | Oc1ccc(-c2nc(-c3ccc(O)c(O)c3)cs2)cc1 | 2.23 µM
8 | O=C(CCSCCC(=O)NCc1ccco1)NCc1ccco1 | 0.953 µM
9 | Nc1c(C(=O)NCc2cccnc2)sc(=S)n1-c1ccccc1 | 2.22 µM
10 | CN(C)c1ccc(N=Cc2c(O)n(CCC3=CCCCC3)c(=O)[nH]c2=O)cc1 | 3.8 µM
11 | C/C=C/CSc1nc2c(c(=O)[nH]c(=O)n2C)n1Cc1ccc(C)cc1 | 11.2 µM
12 | COC(=O)C1=C(C)N=c2s/c(=C3\C(=O)Nc4ccccc43)c(=O)n2C1c1ccccc1 (stereo not given) | 5.94 µM
13 | Fc1ccccc1CSc1nc2ncccc2[nH]1 | 9.72 µM
14 | O=C(CSc1nc2c([nH]c3ccccc32)c(=O)n1-c1cccc(Cl)c1)N1CCOCC1 | 23.4 µM
15 | C=CCSc1nc2c(cnn2-c2ccc(C)c(C)c2)c(=O)[nH]1 | 13.8 µM
16 | O=C1CCCC(O)=C1C(C#Cc1ccccc1)C1=C(O)CCCC1=O | 1.08 µM

Same assay, conditions: HIV-1 RT RNase H enzymatic assay, inhibition, at 50 µM, stronger effect = higher value

Row | Structure (SMILES) | inhibition
17 | CC(C)Cc1cc(C(=O)Nc2sc3c(c2C#N)CCCC3)no1 | 94.6%
18 | c1ccc(Cc2nn3c(Cn4cnc5ccccc54)nnc3s2)cc1 | 91.2%
19 | CC(=O)N(Cc1cc(=O)[nH]c2ccccc12)c1cccc(C)c1 | 89.9%
20 | CC(=O)C(C(C)=O)c1c(Cl)c(O)c(O)c2c(C(=O)c3ccccc3)coc12 | 93.1%
21 | N#Cc1c(N)nc(SCC(=O)NC2CCCCC2)c(C#N)c1-c1ccc(Cl)cc1 | 64.2%
22 | O=c1c(O)c(-c2ccc(O)cc2O)oc2cc(O)cc(O)c12 | 92.8%
23 | CCOc1cc(C2C(C#N)=C(N)SC(N)=C2C#N)ccc1OCCN1CCOCC1 | 41.5%
24 | COc1ccccc1N1CSC2=C(C#N)C(c3ccc(SC)cc3)CC(=O)N2C1 (stereo not given) | 97.1%
25 | CC(C)OC(=O)CSc1nnc(-c2ccc(C(C)(C)C)cc2)n1N | 59.5%
26 | Cc1sc(-n2c(C)cc(/C=N/n3cnnc3)c2C)c(C#N)c1C | 89.5%
27 | Cc1cc(-c2nn3c(-c4ccccc4)nnc3s2)c2ccccc2n1 | 94.7%
28 | c1ccc(Cc2nn3c(Cn4nnc5ccccc54)nnc3s2)cc1 | 96.1%
29 | C=CCSc1nc2c(c(=O)[nH]c(=O)n2C)n1C(C)C | 60.6%
30 | Cc1ccccc1OCc1nc(-c2ccc(NC(=O)c3ccc4c(c3)OCO4)cc2)no1 | 90.2%
31 | CC(C)CN(C(=O)COC(=O)c1ccc2c(c1)NC(=O)CS2)C1CCS(=O)(=O)C1 (stereo not given) | 55.8%
32 | CCN(CC)C1=CC(=O)OC12CCCCC2 | 65.8%
33 | S=c1nc(C2CC2)[nH]c2ccccc12 | 97.1%
34 | CC(C)C1N=C2c3ccccc3N=C(SCC(=O)c3ccc(O)c(O)c3)N2C1=O (stereo not given) | 99.8%
35 | Cc1cccc(C(=O)OCC(=O)Nc2ccc(N3CCCCC3)cc2)c1O | 94.7%
36 | CCOC(=O)C1CCCN(C(=O)Cn2sc3nc(C)cc(C)c3c2=O)C1 (stereo not given) | 69.6%
37 | Nc1ccc(-c2nnc(-c3ccc(-c4ccccc4)cc3)o2)cc1 | 101%
38 | COc1ccc2[nH]c(=O)c(CN(C3CCCCC3)C(c3nnnn3Cc3ccco3)C(C)C)cc2c1 (stereo not given) | 88.5%

Row | Structure (SMILES) | inhibition
39 | CC1=C(SCCC#N)S/C(=C2\SC(C)=C(SCCC#N)S2)S1 | 97.5%
40 | c1c2c(cc3sc(N4CCOCC4)nc13)OCO2 | 78.1%
41 | COC(=O)c1ccccc1NC(=O)c1ccc2c(c1)C(=O)N(Cc1ccco1)C2=O | 93.3%
42 | CCOC(=O)N(c1ccccc1)P1(=S)OCCO1 | 85.5%
43 | COc1cc(C2CC(=O)N3CN(c4ccccc4C)CSC3=C2C#N)cc(OC)c1OC (stereo not given) | 100%
44 | CCOC(=O)c1c(C2COc3ccccc3O2)csc1NC(=O)c1ccco1 (stereo not given) | 96.6%
45 | CC(C)Sc1nc(-c2cccs2)nc2c1c(=O)n(C)c(=O)n2C | 98.9%
46 | O=C(O)/C=C/c1ccc(O)c(O)c1 | 52.1%
47 | C=CCSc1nc2c(c(=O)[nH]c(=O)n2C)n1CC | 72.8%
48 | O=S(=O)(/N=S1/CC=CCN1S(=O)(=O)c1ccccc1)c1ccccc1 (stereo not given) | 69%
49 | COc1cc(-c2nnc3sc(-c4cccnc4)nn23)cc(OC)c1OC | 72.2%
50 | C=CCc1c(C)[nH]c(=S)c(C#N)c1C | 67.2%
51 | OCCN1CCN(C(=S)c2ccc(Cl)c(Cl)c2)CC1 | 76.6%
52 | CC(C)Cn1c(SCC(=O)NC(=O)Nc2ccc3c(c2)OCCO3)nc2ccccc2c1=O | 83.9%
53 | CCCCCCn1c(SCC(=O)OC)nc2c1c(=O)[nH]c(=O)n2C | 79.6%
54 | CCOC(=O)C1=C(C)N=c2s/c(=C3\C(=O)Nc4ccccc43)c(=O)n2C1c1ccc2c(c1)OCO2 (stereo not given) | 83.8%
55 | CCOc1ccc(N2Cc3ccccc3C2)cc1 | 80%
56 | C=CCn1c(SCC(=O)c2ccc(O)c(O)c2)nnc1-c1ccccc1OC | 97.5%
57 | Oc1ccc(-c2nc(-c3ccc(O)c(O)c3)cs2)cc1 | 101%
58 | N#Cc1cc(-c2ccccc2)nn1-c1ccccc1 | 99.4%
59 | CCCc1nc2ccccc2c(=O)n1/N=C/c1ccc(O)c(O)c1 | 97.3%
60 | O=C(CSc1nc2sc3c(c2c(=O)n1-c1ccccc1)CCCC3)NCc1ccco1 | 77.8%
